In patent US20190031618A1, “BENZIMIDAZOLE DERIVATIVES USEFUL AS CB-1 INVERSE AGONISTS” (Janssen Pharmaceutica NV, priority 2015, published 2019) one finds EC50 and IC50 data, which are given here for 26 compounds.

In assay [1] the target is Human CB2R (Cannabinoid receptor 2) (Homo sapiens, UniProt P34972). Briefly: CB-2 in vitro cAMP (HTRF) assay. The class given is cell-based. The note with it: for EC50: HEK cells, cAMP HTRF, 250 nM forskolin, mean where tested more than once, read-out: CB2 HEK_cAMP EC50. Summed up: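 HEK-293 cells stably expressing receptor, plated overnight at 4E5 cells/mL, tested with 1/3 serial dilutions of compound in HBSS/HEPES/BSA buffer with 0.5 mM IBMX and forskolin (diluted to 1.5 μM in buffer). cAMP measured by competitive HTRF immunoassay (d2-cAMP, cryptate anti-cAMP), signal inversely proportional to cAMP.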
(In general: TR-FRET usually uses a lanthanide donor and a delayed reading to cut background.)

The target in assay [2] is Human CB1R (Cannabinoid receptor 1) (Homo sapiens, UniProt P21554). Briefly: CB-1 in vitro cAMP (HTRF) assay. The note with it: for EC50: HEK cells, cAMP HTRF, 250 nM forskolin, mean where tested more than once, read-out: CB1 HEK_cAMP EC50. It counts as cell-based. Summed up: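 Intracellular cAMP from HTRF ratio (d2-cAMP vs Eu-cryptate anti-cAMP), converted to nM via per-plate standards, in stable human CB1R HEK-293 cells.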
Sequence of Human CB1R (Cannabinoid receptor 1) (P21554 whole entry): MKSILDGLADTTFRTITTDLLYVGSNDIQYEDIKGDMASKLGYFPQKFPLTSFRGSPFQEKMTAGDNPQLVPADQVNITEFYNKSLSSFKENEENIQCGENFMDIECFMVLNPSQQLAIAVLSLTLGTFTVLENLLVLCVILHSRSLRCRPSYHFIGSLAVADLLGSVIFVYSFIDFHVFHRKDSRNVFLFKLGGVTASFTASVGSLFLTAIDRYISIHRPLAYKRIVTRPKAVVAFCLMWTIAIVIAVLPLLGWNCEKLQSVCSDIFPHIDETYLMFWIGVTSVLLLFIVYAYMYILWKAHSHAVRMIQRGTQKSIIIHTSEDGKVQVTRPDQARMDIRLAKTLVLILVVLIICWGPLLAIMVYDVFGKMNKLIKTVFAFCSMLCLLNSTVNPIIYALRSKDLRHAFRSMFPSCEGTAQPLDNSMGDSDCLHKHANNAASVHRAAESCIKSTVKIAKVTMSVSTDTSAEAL

Sequence of Human CB2R (Cannabinoid receptor 2) (P34972 whole entry): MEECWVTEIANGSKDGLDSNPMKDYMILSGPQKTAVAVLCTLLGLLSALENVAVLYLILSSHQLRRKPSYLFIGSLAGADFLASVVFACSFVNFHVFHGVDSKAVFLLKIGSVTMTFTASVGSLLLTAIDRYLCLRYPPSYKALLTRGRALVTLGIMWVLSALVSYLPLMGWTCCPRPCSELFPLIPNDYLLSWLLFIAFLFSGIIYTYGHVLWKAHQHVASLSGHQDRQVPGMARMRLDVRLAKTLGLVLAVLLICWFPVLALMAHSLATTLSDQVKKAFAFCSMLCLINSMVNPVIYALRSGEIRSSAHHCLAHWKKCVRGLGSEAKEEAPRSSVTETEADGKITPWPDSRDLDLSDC

By EC50 is commonly meant the concentration that produces a half-maximal response. Regarding `CCCc1nc2ccc(C(c3ccc(Cl)cc3)c3nccs3)cc2n1-c1cccc(Cl)c1` (stereo not shown) [Example 431], the EC50 in assay [1] is greater than 10000 nM; in assay [2], 111 nM.

For the compound `Clc1ccc(C(c2ccc3nc(C4CC4)n(-c4cccc(Cl)c4)c3c2)c2nccs2)cc1` (stereo not shown) [Example 432], the EC50 in assay [1] was greater than 10000 nM; in assay [2] it was 64.3 nM.

For the compound `CC(C)Cc1nc2ccc(C(c3ccc(Cl)cc3)c3nccs3)cc2n1-c1cccc(Cl)c1` (stereo not shown) [Example 433], the concentration for a half-maximal effect (EC50) in assay [1] and in assay [2] was greater than 10000 nM throughout.

On to `CCc1nc2ccc(C(c3ccc(Cl)cc3)c3nccs3)cc2n1-c1cccc(Cl)c1` (stereo not shown) [Example 434], for which the 50% effective concentration (EC50) in assay [1] was greater than 10000 nM; in assay [2], 22.7 nM.

As to `Clc1ccc(C(c2ccc3ncn(-c4cccc(Cl)c4)c3c2)c2nccs2)cc1` (stereo not shown) [Example 435], the EC50 in assay [1] and in assay [2] was greater than 10000 nM in each case.

Turning to `Cc1nc2ccc(C(c3ccc(Cl)cc3)c3nccs3)cc2n1-c1cccc(Cl)c1` (stereo not shown) [Example 436], the EC50 was greater than 10000 nM in assay [1] and 473 nM in assay [2].

Regarding `Cc1nc2ccc(C(c3ccc(Cl)cc3)c3nccs3)cc2n1CCc1cccc(Cl)c1` (stereo not shown) [Example 437], the figures for the half-maximal effective concentration (EC50) in assay [1] and in assay [2] were greater than 10000 nM and 192 nM, respectively.

For the compound `Clc1ccc(C(c2ccc3ncn(CCc4cccc(Cl)c4)c3c2)c2nccs2)cc1` (stereo not shown) [Example 438], the values for the EC50 in assay [1] and in assay [2] were greater than 10000 nM and 315 nM, respectively.

For the compound `CCOC(=O)N1CCC(n2c(N(C)C)nc3ccc(C(c4ccc(Cl)cc4)c4nccs4)cc32)CC1` (stereo not shown) [Example 439], the EC50 in assay [1] and in assay [2] was greater than 10000 nM each time.

Take `CCOC(=O)N1CCC(n2c(N)nc3ccc(C(c4ccc(Cl)cc4)c4nccs4)cc32)CC1` (stereo not shown) [Example 440]: the concentration for a half-maximal effect (EC50) in assay [1] is greater than 10000 nM; in assay [2], 999 nM.

For `CCOC(=O)N1CCC(n2c(-c3ccc(Cl)cc3)nc3ccc(C(c4ccc(Cl)cc4)c4nccs4)cc32)CC1` (stereo not shown) [Example 441], the EC50 in assay [1] was greater than 10000 nM; in assay [2] it was 2090 nM.

On to `Clc1ccc(-c2nc3ccc(C(c4ccc(Cl)cc4)c4nccs4)cc3n2C2CCCCC2)cc1` (stereo not shown) [Example 442], for which the concentration for a half-maximal effect (EC50) was greater than 10000 nM in assay [1] and 3400 nM in assay [2].

For the compound `CCOC(=O)N1CCC(n2c(-c3ccc(Cl)cc3Cl)nc3ccc(C(c4ccc(Cl)cc4)c4nccs4)cc32)CC1` (stereo not shown) [Example 443], the concentration giving a half-maximal response (EC50) was found to be 4950 nM in assay [1] and 1430 nM in assay [2].

As for `Clc1ccc(C(c2ccc3nc(-c4ccc(Cl)cc4Cl)n(C4CCCCC4)c3c2)c2nccs2)cc1` (stereo not shown) [Example 444], the EC50 was greater than 10000 nM in assay [1] and 535 nM in assay [2].

On to `CCOC(=O)N1CCC(n2c(C)nc3ccc(C(c4ccc(Cl)cc4)c4nccs4)cc32)CC1` (stereo not shown) [Example 445], for which the 50% effective concentration (EC50) was greater than 10000 nM in assay [1] and 947 nM in assay [2].

Take `CCOC(=O)N1CCC(n2cnc3ccc(C(c4ccc(Cl)cc4)c4nccs4)cc32)CC1` (stereo not shown) [Example 448]: the half-maximal effective concentration (EC50) in assay [1] is greater than 10000 nM; in assay [2] it was 100 nM.

On to `CC(C)(C)c1csc(C(c2ccc(Cl)cc2)c2ccc3ncn(Cc4ccc(Cl)cc4)c3c2)n1` (stereo not shown) [Example 449], for which the concentration for a half-maximal effect (EC50) in assay [1] and in assay [2] was greater than 10000 nM each time.

With `CCc1csc(C(c2ccc(Cl)cc2)c2ccc3nc(C)n(Cc4ccc(Cl)cc4)c3c2)n1` (stereo not shown) [Example 452], the 50% effective concentration (EC50) was greater than 6700 nM in assay [1] and 813 nM in assay [2].

On to `Cc1nc2ccc(C(c3ccc(Cl)cc3)c3nc(C(F)(F)F)cs3)cc2n1Cc1ccc(Cl)cc1` (stereo not shown) [Example 455], for which the concentration for a half-maximal effect (EC50) is greater than 7400 nM in assay [1] and 2410 nM in assay [2].

For `CCc1csc(C(c2ccc(Cl)cc2)c2ccc3nc(-c4ccc(Cl)cc4)n(Cc4ccc(Cl)cc4)c3c2)n1` (stereo not shown) [Example 456], the figures for the EC50 in assay [1] and in assay [2] were greater than 9200 nM and greater than 10000 nM, respectively.

Take `CCc1csc(C(c2ccc(Cl)cc2)c2ccc3ncn(Cc4ccc(Cl)cc4)c3c2)n1` (stereo not shown) [Example 460]: the EC50 in assay [1] and in assay [2] was greater than 10000 nM each time.

For the compound `FC(F)(F)c1csc(C(c2ccc(Cl)cc2)c2ccc3ncn(Cc4ccc(Cl)cc4)c3c2)n1` (stereo not shown) [Example 462], the 50% effective concentration (EC50) is greater than 6600 nM in assay [1] and greater than 10000 nM in assay [2].

Take `Cc1nc2ccc(C(c3ccc(Cl)cc3)c3nccs3)cc2n1Cc1ccc(Cl)cc1` (stereo not shown) [Example 463]: the EC50 was greater than 7600 nM in assay [1] and 164 nM in assay [2].

As for `Clc1ccc(Cn2c(-c3ccc(Cl)cc3)nc3ccc(C(c4ccc(Cl)cc4)c4nccs4)cc32)cc1` (stereo not shown) [Example 464], the EC50 is greater than 7200 nM in assay [1] and 212 nM in assay [2].

As to `Clc1ccc(Cn2cnc3ccc(C(c4ccc(Cl)cc4)c4nccs4)cc32)cc1` (stereo not shown) [Example 466], the EC50 in assay [1] was 1430 nM; in assay [2] it was greater than 8700 nM.

What is called IC50 is the concentration that inhibits the measured activity by half. For `O=S(=O)(c1cccc(NCCOCCOCc2ccccc2)c1)N1CCC(n2c(C3CC3)nc3ccc(C(c4ccc(Cl)cc4)c4ccc(Cl)cc4)cc32)CC1` [compound of formula (II), N-(2-(2-(benzyloxy)ethoxy)ethyl)-3-((4-(6-(bis(4-chlorophenyl)methyl)-2-cyclopropyl-1H-benzo[d]imidazol-1-yl)piperidin-1-yl)sulfonyl)aniline], the 50% inhibitory concentration (IC50) was greater than 10000 nM in assay [1] (second line, the sentence announces activity against CB-1 and CB-2, read-out: CB-1 receptor: IC50 (second line of the list)); 13.5 nM in assay [2] (first line of the list, HEK-293 cells, cAMP, 250 nM Forskolin).
